Source: paper PMC11851430, “Workflow for E3 Ligase Ligand Validation for PROTAC Development” (ACS Chemical Biology, 2025)

Key:
[1] = system: kinase protein levels in MCF-7 cells; test: TMT-labeled quantitative proteomics; assay type: cell-based, human; conditions: for kinase degradation: MCF-7 cells, 6 h
Experimental: (§1) 50 µl of SDS Lysis Buffer (2% SDS, 50 mM TRIS pH 8.5, 10 mM TCEP, 40 mM CAA) was added to each sample. Cells were transferred into low binding reaction tubes (Eppendorf:
(§2) Methanol/Chloroform Precipitation. 200 µl of methanol and 50 µl of chloroform were added to each sample reaction tube and mixed via vortex. 150 µl of milliQ-H2O were added and samples were vortexed further. Samples were centrifuged for 5 minutes at 15000 g and the aqueous layer above the interphase was removed. 150 µl of methanol was added, samples were vortexed and centrifuged for 10 minutes at 15000 g to precipitate the pellet. The aforementioned wash procedure was repeated twice before transferring the pellet to a new low bind reaction tube in which it was allowed to dry for 5 minutes.
(§3) Dissolving the Protein Pellet and Protein Quantification. 50 µl of digestion buffer (8 M Urea, 50 mM TRIS pH 8) was added to each sample before vortexing and shaking at 750 rpm at room temperature for 10 minutes to solubilize the pellet. Protein quantification via PierceTM […]
(§4) Protein Digestion. Samples were diluted 1:2 with 50 mM TRIS pH 8.5 to reach a final concentration of 4 M Urea. Lys-C (Promega: VA1170) was added at a 1:100 enzyme/substrate ratio. Samples were agitated at 550 rpm and 37 °C for 3 h. Samples were further diluted with 50 mM TRIS pH 8.5 to a final concentration of 1 M Urea and Trypsin (Promega: V5280) was added at a 1:100 enzyme/substrate ratio. Samples were agitated overnight at 550 rpm and 37 °C. The digestion was stopped the following day via addition of TFA to a final concentration […]
(§5) Solid Phase Extraction via C18 Cartridges. Sep-Pak C18 Cartridges (Waters: WAT054955) were used for solid phase extraction of digested peptides. For preconditioning of C18 cartridges, 1 mL of methanol was added to each column followed by 1 mL of solution B (0.1% formic acid, 80% acetonitrile) and 1 mL of solution A (0.1% formic acid, ddH2O) twice. Samples […]
(§6) were loaded to their respective columns and once samples had passed, columns were washed twice with solution A to remove unwanted components from the loading step. Elution of samples was carried out via introduction of 40% and 60% acetonitrile steps. Samples were dried and snap frozen in liquid nitrogen.
(§7) TMT-Labeling. Desalted peptides were dried and resuspended in TMT-labeling buffer (200 mM EPPS pH 8.2, 20% acetonitrile). 10 μg of peptides per condition were subjected to TMT labeling with 1:2.5 peptide TMT ratio (w/w) for 1 h at room temperature. The labeling reaction was quenched by addition of hydroxylamine to a final concentration of 0.5% and incubation at room temperature for 15 minutes. Successful TMT labeling was verified by mixing equimolar ratios of peptides and subjecting the mix to single shot LC-MS/MS analysis. For high pH reversed phase fractionation on a Dionex analytical HPLC, 50 µg of pooled and purified TMT labelled samples were resuspended in 10 mM ammonium-bicarbonate (ABC), 5% acetonitrile, and separated on a 250 mm long C18 column (Aeris Peptide XB-C18, 4.6 mm ID, 2.6 µm particle size; Phenomenex) using a multistep gradient from 100% solvent A (5% acetonitrile, 10 mM ABC in water) to 60% solvent B (90% acetonitrile, 10 mM ABC in water) over 70 minutes. Eluting peptides were collected every 45 seconds into a total of 96 fractions, which were cross-concatenated into 24 fractions and dried in a vacuum concentrator and resuspended in 3% acetonitrile with 0.1% TFA for LC-MS analysis.
(§8) Mass spectrometry data acquisition. Tryptic peptides were analyzed on an Orbitrap Lumos coupled to an easy nLC 1200 (ThermoFisher Scientific) using a 35 cm long, 75 µm ID fused-silica column packed in house with 1.9 µm C18 particles (Reprosil pur, Dr. Maisch), and kept at 50 °C using an integrated column oven (Sonation). HPLC solvents consisted of 0.1% formic acid in water (buffer A) and 0.1% formic acid and 80% acetonitrile in water (buffer B). Assuming

[2] = molecular target: T1, kinase protein levels in MCF-7 cells (Homo sapiens, UniProt A0A096LP01); test: TMT-labeled quantitative proteomics; assay type: cell-based
T1 construct: endogenous in cells; host or cells: MCF-7
Experimental: as §1, §2, §3, §4, §5, §6, §7, §8

[3] = molecular target: T2, CSNK2A2A (Homo sapiens, UniProt P19784); test: DSF assay; assay type: binding; conditions: 20 µM compound
T2 construct: purchased in-house DSF panel (SGC-style construct names; the trailing A/B is a construct suffix)

[4] = molecular target: T3, DMPK1A (Homo sapiens, UniProt Q09013); test: DSF assay; assay type: binding; conditions: 20 µM compound
T3 construct: purchased in-house DSF panel (SGC-style construct names; the trailing A/B is a construct suffix)
T3 sequence (Q09013 1-629): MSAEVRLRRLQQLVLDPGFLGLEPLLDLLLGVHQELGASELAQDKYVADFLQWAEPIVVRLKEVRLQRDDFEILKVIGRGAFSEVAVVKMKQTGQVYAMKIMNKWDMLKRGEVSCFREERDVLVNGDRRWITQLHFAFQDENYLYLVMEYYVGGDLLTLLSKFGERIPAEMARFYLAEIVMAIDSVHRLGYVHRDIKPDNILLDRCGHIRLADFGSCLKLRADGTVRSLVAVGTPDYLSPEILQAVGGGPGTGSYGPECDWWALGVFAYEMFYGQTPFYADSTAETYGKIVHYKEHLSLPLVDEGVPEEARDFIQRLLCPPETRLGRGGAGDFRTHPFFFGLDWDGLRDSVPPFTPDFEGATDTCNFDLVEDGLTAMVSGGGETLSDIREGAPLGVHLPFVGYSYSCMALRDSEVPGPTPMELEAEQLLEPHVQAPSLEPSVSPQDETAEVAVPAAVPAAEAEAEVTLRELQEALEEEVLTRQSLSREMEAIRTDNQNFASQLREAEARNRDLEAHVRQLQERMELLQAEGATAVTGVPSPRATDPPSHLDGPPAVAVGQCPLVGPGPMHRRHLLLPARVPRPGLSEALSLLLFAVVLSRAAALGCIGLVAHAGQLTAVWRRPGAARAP

[5] = molecular target: T4, TTK1A (Homo sapiens, UniProt P33981); test: DSF assay; assay type: binding; conditions: 20 µM compound
T4 construct: purchased in-house DSF panel (SGC-style construct names; the trailing A/B is a construct suffix)
T4 sequence (P33981 519-808): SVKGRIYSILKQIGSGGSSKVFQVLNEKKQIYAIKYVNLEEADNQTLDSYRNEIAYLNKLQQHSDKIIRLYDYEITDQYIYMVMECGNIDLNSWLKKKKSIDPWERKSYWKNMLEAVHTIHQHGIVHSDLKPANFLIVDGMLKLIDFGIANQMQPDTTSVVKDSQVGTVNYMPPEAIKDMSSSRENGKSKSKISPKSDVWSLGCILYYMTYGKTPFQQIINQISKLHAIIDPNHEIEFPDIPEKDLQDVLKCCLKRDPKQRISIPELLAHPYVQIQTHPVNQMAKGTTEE

[6] = protein SMIM26, MCF7, 1 µM, set2
[7] = protein NBPF19;NBPF8;NBPF10;NBPF15;NBPF26;NBPF14;NBPF1;NBPF12, MCF, 0.25µM, set4
[8] = protein NBPF19;NBPF8;NBPF26;NBPF14;NBPF12;NBPF10;NBPF15;NBPF1, MCF7, 2.5 µM, set3
[9] = protein NBPF19;NBPF15;NBPF8;NBPF10;NBPF26;NBPF14, MCF7, 1 µM, set1.1
[10] = protein NUDT4, MCF7, 1 µM, set1.1
[11] = protein NUDT4;NUDT11;NUDT10, MCF, 0.25µM, set4
[12] = protein UQCRHL;UQCRH, MCF, 0.25µM, set4
[13] = protein LINC00493, MCF7, 2.5 µM, set3
[14] = protein LINC00493, MCF, 0.25µM, set4
[15] = protein LINC00493, MCF7, 1 µM, set5

T1 sequence (A0A096LP01 whole entry): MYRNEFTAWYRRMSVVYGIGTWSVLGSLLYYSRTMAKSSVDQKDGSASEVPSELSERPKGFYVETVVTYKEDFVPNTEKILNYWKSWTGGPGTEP
T2 sequence (P19784 whole entry): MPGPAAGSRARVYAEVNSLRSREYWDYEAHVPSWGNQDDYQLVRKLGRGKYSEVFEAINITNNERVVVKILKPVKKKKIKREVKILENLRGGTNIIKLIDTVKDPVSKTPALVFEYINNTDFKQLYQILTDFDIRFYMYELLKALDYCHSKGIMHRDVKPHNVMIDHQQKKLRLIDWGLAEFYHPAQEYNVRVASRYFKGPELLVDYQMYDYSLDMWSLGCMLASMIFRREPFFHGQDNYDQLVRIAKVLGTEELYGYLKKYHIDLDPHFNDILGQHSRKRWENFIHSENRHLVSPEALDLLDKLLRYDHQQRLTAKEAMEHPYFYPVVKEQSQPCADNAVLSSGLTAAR

Row | SMILES | kinase degradation ([1]; 1 μM) | kinase degradation ([1]; 0.25 μM) | kinase degradation ([1]; 2.5 μM) | log2FC (compound/DMSO) [1, 7] | log2FC (compound/DMSO) [1, 8] | log2FC (compound/DMSO) [1, 9] | log2FC (compound/DMSO) [1, 10] | log2FC (compound/DMSO) [1, 11] | log2FC (compound/DMSO) [1, 12] | P.Value (compound/DMSO) [2, 13] | log2FC (compound/DMSO) [2, 13] | P.Value (compound/DMSO) [2, 14] | log2FC (compound/DMSO) [2, 14] | further results
1 | CC(=O)N[C@H](C(=O)N1C[C@H](O)C[C@H]1C(=O)NCc1ccc(-c2scnc2C)cc1OCCOCCOCCOCCNC(=O)c1cc(Nc2cc(C3CC3)[nH]n2)nc(Nc2ccc(CC#N)cc2)n1)C(C)(C)C [5-b] | did not result in significant degradation of any kinase |  |  |  |  |  |  |  |  |  |  |  |  | P.Value (compound/DMSO) [2, 6]: 0.1541; log2FC (compound/DMSO) [2, 6]: -0.1317
2 | Cc1ncsc1-c1ccc(CNC(=O)[C@@H]2C[C@@H](O)CN2C(=O)[C@@H](NC(=O)CCOCCOCCOCCN2CCN(c3cc(Nc4cc(C5CC5)[nH]n4)nc(Nc4ccc(CC#N)cc4)n3)CC2)C(C)(C)C)cc1 [4-a] | significant degradation of several kinases | Few kinases were degraded | the number of degraded kinases was again lower | 0.1164 | 0.132 | -0.3973 | -0.04751 | 0.003804 | 0.8375 | 0.002092 | 0.3781 | 0.1285 | 0.1013 | 
3 | Cc1ncsc1-c1ccc(CNC(=O)[C@@H]2C[C@@H](O)CN2C(=O)[C@@H](NC(=O)CCCCCCN2CCN(c3ccc(Nc4ncc(Cl)c(Nc5ccccc5C(N)=O)n4)cc3)CC2)C(C)(C)C)cc1 [6-d] | significant degradation of several kinases |  |  |  |  |  |  |  |  |  |  |  |  | log2FC (compound/DMSO) ([1]; protein ARHGEF5;ARHGEF35, MCF7, 1 µM, set5): 0.09474; log2FC (compound/DMSO) ([1]; protein NBPF19;NBPF15;NBPF8;NBPF10;NBPF3;NBPF11;NBPF26;NBPF14;NBPF1;NBPF12, MCF7, 1 µM, set5): -0.4722; P.Value (compound/DMSO) [2, 15]: 0.0001847; log2FC (compound/DMSO) [2, 15]: -0.9636
4 | CC(C)(C)OC(=O)NCCOCCOCCOCCOCCC(=O)N1CCN(c2cc(Nc3cc(C4CC4)[nH]n3)nc(Nc3ccc(CC#N)cc3)n2)CC1 [4-L] |  |  |  |  |  |  |  |  |  |  |  |  |  | ΔTm at 20 µM [3]: 8.28 °C; ΔTm at 20 µM [4]: 3.19 °C; ΔTm at 20 µM [5]: 4.14 °C
5 | Cc1ncsc1-c1ccc(CNC(=O)[C@@H]2C[C@@H](O)CN2C(=O)[C@@H](NC(=O)CCOCCOCCNC(=O)c2cc(Nc3cc(C4CC4)[nH]n3)nc(Nc3ccc(CC#N)cc3)n2)C(C)(C)C)cc1 [5-a] | did not result in significant degradation of any kinase |  |  |  |  | -0.2083 | -0.05063 |  |  |  |  |  |  | 
6 | Cc1ncsc1-c1ccc(CNC(=O)[C@@H]2C[C@@H](O)CN2C(=O)[C@@H](NC(=O)CCOCCOCCOCCOCCN2CCN(c3ccc(Nc4ncc(Cl)c(Nc5ccccc5C(N)=O)n4)cc3)CC2)C(C)(C)C)cc1 [6-b] | significant degradation of several kinases | Few kinases were degraded | the number of degraded kinases was again lower | -0.06617 | -0.2581 | -0.7206 | -0.1525 | 0.182 | 0.8692 | 0.00484 | -0.4049 | 0.5319 | -0.03906 | 
7 | CC(=O)N[C@H](C(=O)N1C[C@H](O)C[C@H]1C(=O)NCc1ccc(-c2scnc2C)cc1OCCOCCOCCOCCOCCC(=O)N1CCN(c2ccc(Nc3ncc(Cl)c(Nc4ccccc4C(N)=O)n3)cc2)CC1)C(C)(C)C [6-e] | did not result in significant degradation of any kinase | no significantly degraded kinases were detected | no significantly degraded kinases were detected | 0.2043 | 0.155 |  |  | -0.054 | -0.5234 | 0.7735 | 0.04253 | 0.8916 | -0.008166 | P.Value (compound/DMSO) [2, 6]: 0.2313; log2FC (compound/DMSO) [2, 6]: -0.1331
8 | CC(C)(C)OC(=O)NCCCOCCOCCOCCCNC(=O)c1cc(Nc2cc(C3CC3)[nH]n2)nc(Nc2ccc(CC#N)cc2)n1 [5-L] |  |  |  |  |  |  |  |  |  |  |  |  |  | ΔTm at 20 µM [3]: 6.77 °C; ΔTm at 20 µM [4]: 3.69 °C; ΔTm at 20 µM [5]: 4.18 °C
